Where two headings read alike, the source gives them in different places.
What was measured:
[1] = cited from earlier work
[2] = target: T1, human 5-HT2c receptor protein (Homo sapiens, UniProt P28335); assay: 5-HT2c receptor affinity assay (displacement of 3H-labelled 5-HT, Scintillation Proximity Assay); settings: membranes of transfected HEK293 cells; 3H-5-HT displacement; non-specific binding 5 μM mianserin
T1 construct: expressed in transfected cells; host or cells: HEK293 (membranes)
T1 sequence (P28335 33-458): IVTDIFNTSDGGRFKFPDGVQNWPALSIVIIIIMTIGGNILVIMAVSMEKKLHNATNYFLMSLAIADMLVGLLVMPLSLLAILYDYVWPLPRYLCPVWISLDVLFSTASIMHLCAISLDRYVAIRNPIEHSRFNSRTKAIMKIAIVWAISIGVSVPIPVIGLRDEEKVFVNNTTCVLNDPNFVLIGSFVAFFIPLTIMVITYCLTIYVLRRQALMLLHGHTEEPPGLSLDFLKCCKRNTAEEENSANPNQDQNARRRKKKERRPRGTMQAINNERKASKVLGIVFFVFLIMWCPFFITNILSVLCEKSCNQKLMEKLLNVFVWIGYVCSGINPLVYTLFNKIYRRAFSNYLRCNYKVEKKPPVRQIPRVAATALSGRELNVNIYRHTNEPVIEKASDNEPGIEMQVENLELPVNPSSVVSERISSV
Method: The 5-HT2c receptor affinity of compounds in the Examples was determined in competition experiments, where the ability of each compound in serial dilution to displace ^3H-labelled 5-HT, bound to membranes prepared from a transfected HEK293 cell line stably expressing the human 5-HT2c receptor protein, was monitored by Scintillation Proximity Assay technology. Non-specific binding was defined using 5 μM mianserin. Typically, the 5HT2c receptor affinity values (Ki, nM) were in the range of 1 nM to 1500 nM, preferably 1 nM to 100 nM.

[3] = test system: 5-HT2c receptor; settings: mice expressing the mutated inactive form of the 5-HT2c receptor; cited from earlier work
[4] = target: T2, 5-HT2c receptor (Mus musculus, UniProt P34968); settings: mice that express the normal 5-HT2c receptor; cited from earlier work
T2 construct: mice that express the normal 5-HT2c receptor; host or cells: mice (in vivo)
T2 sequence (P34968 33-459): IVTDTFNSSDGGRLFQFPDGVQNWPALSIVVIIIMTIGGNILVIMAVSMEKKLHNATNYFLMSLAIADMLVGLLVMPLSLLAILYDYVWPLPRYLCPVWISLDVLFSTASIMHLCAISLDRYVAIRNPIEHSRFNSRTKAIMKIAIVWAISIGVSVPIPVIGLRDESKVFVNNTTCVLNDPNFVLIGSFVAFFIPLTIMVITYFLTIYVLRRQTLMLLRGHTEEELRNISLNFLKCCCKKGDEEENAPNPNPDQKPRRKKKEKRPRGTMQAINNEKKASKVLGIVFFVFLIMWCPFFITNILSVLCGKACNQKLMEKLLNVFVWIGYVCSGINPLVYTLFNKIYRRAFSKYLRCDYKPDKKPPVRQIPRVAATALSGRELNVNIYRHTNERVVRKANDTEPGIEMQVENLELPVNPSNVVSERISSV

Compound: CCN[C@@H](C)Cc1cccc(C(F)(F)F)c1 [dexfenflurarnine]
- body weight ([1]; controlled clinical studies): weight reduction

Compound: CNCCC(Oc1ccc(C(F)(F)F)cc1)c1ccccc1 (stereo not shown) [fluoxetine]
- body weight ([1]; controlled clinical studies): weight reduction

Compound: CC(C)NCc1cccc(OCCOc2nccnc2N2CCNCC2)c1 [Example 5, 2-(1-Piperazinyl)-3-{2-[3-{(isopropylamino)methyl}phenoxy]ethoxy}pyrazine]
- Ki [2]: 3 nM

Compound: c1cc(CN2CCOCC2)cc(OCCOc2nccnc2N2CCNCC2)c1 [Example 1, 2-(1-Piperazinyl)-3-{2-[3-(4-morpholinylmethyl)phenoxy]ethoxy}pyrazine]
- Ki [2]: 18 nM

Compound: Clc1cccc(N2CCNCC2)c1 [mCPP, m-chlorophenylpiperazine]
- food intake [3]: lacks activity
- food intake [4]: reduces food intake
- body weight ([1]; obese subjects, after 2 weeks of treatment): slight but sustained reduction in body weight

— patent publication US6756377B2, “Compounds and their use” (Biovitrum AB, priority 2000, dated 2004)
